Reference: patent US11413296B2, “Viscous budesonide for the treatment of inflammatory diseases of the gastrointestinal tract” (The Regents of the University of California, priority 2005, dated 2022)
Like-named read-outs stand apart in the source and are kept apart here.

Tested on: children with EE
Assay type: in vivo, human
Text: Patient 1 was a person with a history of abdominal pain, failure to thrive, and vomiting since infancy, and developmental delay with isolated EE diagnosed in 2001. Their allergic history was significant for allergic rhinitis secondary to cat, dog, and dust mite exposure as well as positive Pharmacia CAP radioallergosorbent testing for fish and milk. […] They were referred to Children's Hospital Eosinophilic Gastrointestinal Disorders clinic for further management of EE recalcitrant to usual therapy. At the time of their referral, they continued to have vomiting and poor weight gain and their parent reported significant difficulty with the puff and swallow technique. They were placed on a regimen of twice daily oral budesonide suspension (Pulmicort®) 500 micrograms (4 ml) mixed with about 10 packets (1 gram each) sucralose (Splenda®), a non-absorbed sugar in order to increase fluid viscosity to be swallowed twice daily. The total volume of the preparation was about 7 to 8 ml. […] Eight am cortisol was 13.2 mcg/dL (normal range for age 3-15 mcg/dL) after four months of therapy.
Patient 2 was a child with a history of developmental delay, abdominal pain, and RAST positivity for milk, egg, and wheat. […] They were placed on a hydrolyzed formula containing milk protein (Peptamen Jr®), omeprazole 10 mg twice daily and oral cromolyn (Gastrocrom®) 100 mg four times daily. […] They were referred to the Children's Hospital Eosinophilic Gastrointestinal Disorders clinic for further management. […] After two months of elemental formula and oral cromolyn sodium, EGD was unchanged with a pale, furrowed esophagus and maximal eosinophil counts of 100, 90, and 70 per hpf in the distal, mid, and proximal esophagus with diffuse basal zone hyperplasia. Their developmental delay precluded the use of a fluticasone inhaler devise with puff and swallow technique. As an alternative, they received oral budesonide 500 micrograms (Pulmicort®) mixed with sucralose (Splenda®) twice daily as topical esophageal therapy.

[1] = Patient 2, elemental formula and oral cromolyn sodium, two months
[2] = Patient 2, hydrolyzed formula, omeprazole and oral cromolyn 100 mg four times daily, 12 months

Question: `CCCC1O[C@@H]2C[C@H]3[C@@H]4CCC5=CC(=O)C=C[C@]5(C)[C@H]4[C@@H](O)C[C@]3(C)[C@]2(C(=O)CO)O1` (stereo partly drawn) [budesonide, 16,17-(butylidenebis(oxy))-11,21-dihydroxy-, (11-β,16-α)-pregna-1,4-diene-3,20-dione] was tested. Which “maximum eosinophil count, proximal esophagus” value (Patient 2 (70 before), oral budesonide 500 micrograms mixed with sucralose twice daily, 3 months) did it give?
Answer: The value was 5 per hpf.

Question: What about the “maximum eosinophil count, mid esophagus” value (Patient 2 (90 before), oral budesonide 500 micrograms mixed with sucralose twice daily, 3 months) of the same compound?
Answer: The value was 20 per hpf.

Question: And the “maximum eosinophil count, distal esophagus” value (Patient 2 (100 before), oral budesonide 500 micrograms (Pulmicort) mixed with sucralose twice daily, 3 months)?
Answer: The value was 28 per hpf.

Question: What does the source list for `CCC(=O)O[C@]1(C(=O)SCF)[C@H](C)C[C@H]2[C@@H]3C[C@H](F)C4=CC(=O)C=C[C@]4(C)[C@@]3(F)[C@@H](O)C[C@@]21C` [fluticasone]?
Answer: maximal eosinophil count (Patient 1, elemental formula and fluticasone, accompanied by basal zone hyperplasia): 74 per hpf; maximum eosinophil count (Patient 1, omeprazole 10 mg twice daily and fluticasone 220 ug twice daily, after 6 months): 50 per hpf

Question: With `C[C@]12C=CC(=O)C=C1CC[C@@H]1[C@@H]2C(=O)C[C@@]2(C)[C@H]1CC[C@]2(O)C(=O)CO` [prednisone] as the compound, how does the “maximum eosinophils per hpf on repeat EGD with biopsy” value (Patient 1 (EE, 60 per hpf at diagnosis), oral prednisone 0.5 mg per kg daily for one month) read?
Answer: Its value is 2 per hpf.

Question: With `O=C(O)c1cc(=O)c2c(OCC(O)COc3cccc4oc(C(=O)O)cc(=O)c34)cccc2o1` [cromolyn] as the compound, how does the “maximum eosinophil count, distal esophagus” value (Patient 2 (40 per hpf before), hydrolyzed formula (Peptamen Jr), omeprazole 10 mg twice daily and oral cromolyn 100 mg four times daily, 12 months) read?
Answer: Its value is 94 per hpf.

Question: And the “maximal eosinophil count, distal esophagus” value [1]?
Answer: Its value is 100 per hpf.

Question: And the “maximal eosinophil count, mid esophagus” value [1]?
Answer: The value was 90 per hpf.

Question: What about the “maximal eosinophil count, proximal esophagus” value [1] of the same compound?
Answer: Its value is 70 per hpf.

Question: And the “maximum eosinophil count, mid esophagus” value [2]?
Answer: Its value is 65 per hpf.

Question: What about the “maximum eosinophil count, proximal esophagus” value [2] of the same compound?
Answer: Its value is 90 per hpf.
